Data as given in ChEMBL document CHEMBL1201862, “PubChem BioAssay data set” (2004).
Calls of active or inactive are those of the source.

Assays:
Estrogen receptor beta = Estrogen receptor beta (Homo sapiens, UniProt Q92731);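 note: recombinant ER-beta bound to coactivator SRC1 peptide in presence of estradiol agonist; inhibitors block coactivator peptide binding and lower the FRET signal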
Vero = experiment: host cell cytotoxicity of antiviral hits, dose response, cytotoxicity control for West Nile virus antiviral project, secondary assay (AID 1650); format: functional; conditions: Chlorocebus sabaeus
[1] = M. tuberculosis H37Rv growth inhibitors, H37Rv strain (AID 1626); format: functional
[2] = target: Sphingosine 1-phosphate receptor 2 (Homo sapiens, UniProt O95136); experiment: Dose Response Cell Based Assay for Agonists of the S1P2 Receptor of Purchased Analogues. [Related pubchem assays: 729, 843, 854, 736 ]; format: functional
Galanin receptor type 3 = target: T1, Galanin receptor type 3 (Homo sapiens, UniProt O60755); experiment: Fluorescence-based cell-based primary high throughput dose response assay to identify antagonists of the Galanin Receptor 3 (GalR3).; format: functional
T1 sequence (O60755 whole entry): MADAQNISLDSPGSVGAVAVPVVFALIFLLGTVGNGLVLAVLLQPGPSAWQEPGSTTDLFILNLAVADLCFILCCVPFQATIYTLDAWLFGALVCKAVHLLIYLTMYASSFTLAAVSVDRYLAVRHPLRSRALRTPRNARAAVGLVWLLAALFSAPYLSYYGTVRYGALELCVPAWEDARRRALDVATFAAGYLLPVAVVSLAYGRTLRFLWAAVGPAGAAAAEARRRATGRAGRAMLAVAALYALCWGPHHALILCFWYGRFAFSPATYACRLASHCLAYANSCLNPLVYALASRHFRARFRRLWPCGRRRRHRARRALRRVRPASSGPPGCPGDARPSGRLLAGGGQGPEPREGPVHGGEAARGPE

cells [3] = format: functional, cell-based; conditions: HEK-CNG
[4] = target: T2, COUP transcription factor 2 (Homo sapiens, UniProt P24468); experiment: Luminescence-based cell-based high throughput dose response assay to identify inhibitors of COUP-TFII (NR2F2).; format: functional;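 note: HEK293 cells transiently cotransfected with COUP-TFII expression vector and reporter; luciferase reporter luminescence driven by COUP-TFII from the pX2-168 reporter plasmid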
T2 sequence (P24468 whole entry): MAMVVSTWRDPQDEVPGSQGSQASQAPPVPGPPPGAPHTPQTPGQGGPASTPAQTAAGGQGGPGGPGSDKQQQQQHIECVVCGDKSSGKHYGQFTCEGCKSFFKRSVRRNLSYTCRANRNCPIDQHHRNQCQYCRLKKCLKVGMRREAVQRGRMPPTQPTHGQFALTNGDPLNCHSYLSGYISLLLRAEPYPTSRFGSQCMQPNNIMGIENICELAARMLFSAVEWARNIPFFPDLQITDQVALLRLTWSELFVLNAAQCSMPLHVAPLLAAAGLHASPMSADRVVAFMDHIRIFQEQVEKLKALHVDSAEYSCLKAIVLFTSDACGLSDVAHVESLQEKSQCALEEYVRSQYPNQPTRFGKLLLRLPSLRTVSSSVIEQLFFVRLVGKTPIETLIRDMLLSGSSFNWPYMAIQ

[5] = cytotoxicity in HEK-293T cells, dose response, cytotoxicity control for TCR NF-kB inhibitor project, luminescence, T-cell screen hits (AID 489026); format: functional, cell-based;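 note: cells exposed to compound about 14 hours before the viability readout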
Kallikrein-7 = Kallikrein-7 (Homo sapiens, UniProt P49862); experiment: Fluorescence Intensity-based biochemical primary high throughput dose response assay to identify activators of kallikrein-7 (K7) zymogen.
Caspase-6 = target: T3, Caspase-6 (Homo sapiens, UniProt P55212); experiment: human caspase-6 inhibitors, dose response, biochemical, VEID-R110 fluorescence, cherry-pick (AID 720632)
T3 sequence (P55212 whole entry): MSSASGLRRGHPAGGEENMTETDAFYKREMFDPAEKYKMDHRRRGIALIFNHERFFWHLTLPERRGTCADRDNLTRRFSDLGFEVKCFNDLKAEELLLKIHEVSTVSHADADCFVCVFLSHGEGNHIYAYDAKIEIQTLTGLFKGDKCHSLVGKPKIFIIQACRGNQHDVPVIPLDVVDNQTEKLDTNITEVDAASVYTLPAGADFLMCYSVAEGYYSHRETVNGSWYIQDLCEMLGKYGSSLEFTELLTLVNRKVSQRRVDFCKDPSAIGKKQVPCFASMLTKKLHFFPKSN

[6] = target: T4, Carboxy-terminal domain RNA polymerase II polypeptide A small phosphatase 1 (Homo sapiens, UniProt Q9GZU7); experiment: inhibitors of CTDSP1, concentration-response testing, biochemical assay, absorbance-based, actives from ultra-high-throughput screening (AID 540297); format: functional
T4 sequence (Q9GZU7 whole entry): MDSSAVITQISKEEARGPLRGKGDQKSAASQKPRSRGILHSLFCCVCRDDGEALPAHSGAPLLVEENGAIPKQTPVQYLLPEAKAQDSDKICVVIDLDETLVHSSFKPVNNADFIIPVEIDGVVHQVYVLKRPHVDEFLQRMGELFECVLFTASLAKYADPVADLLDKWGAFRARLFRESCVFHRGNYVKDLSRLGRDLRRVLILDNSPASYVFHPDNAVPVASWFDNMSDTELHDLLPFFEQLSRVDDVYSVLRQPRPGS

cells [7] = experiment: cells
Protein skinhead-1 = target: T5, Protein skinhead-1 (Caenorhabditis elegans, UniProt P34707); format: functional
T5 sequence (P34707 whole entry): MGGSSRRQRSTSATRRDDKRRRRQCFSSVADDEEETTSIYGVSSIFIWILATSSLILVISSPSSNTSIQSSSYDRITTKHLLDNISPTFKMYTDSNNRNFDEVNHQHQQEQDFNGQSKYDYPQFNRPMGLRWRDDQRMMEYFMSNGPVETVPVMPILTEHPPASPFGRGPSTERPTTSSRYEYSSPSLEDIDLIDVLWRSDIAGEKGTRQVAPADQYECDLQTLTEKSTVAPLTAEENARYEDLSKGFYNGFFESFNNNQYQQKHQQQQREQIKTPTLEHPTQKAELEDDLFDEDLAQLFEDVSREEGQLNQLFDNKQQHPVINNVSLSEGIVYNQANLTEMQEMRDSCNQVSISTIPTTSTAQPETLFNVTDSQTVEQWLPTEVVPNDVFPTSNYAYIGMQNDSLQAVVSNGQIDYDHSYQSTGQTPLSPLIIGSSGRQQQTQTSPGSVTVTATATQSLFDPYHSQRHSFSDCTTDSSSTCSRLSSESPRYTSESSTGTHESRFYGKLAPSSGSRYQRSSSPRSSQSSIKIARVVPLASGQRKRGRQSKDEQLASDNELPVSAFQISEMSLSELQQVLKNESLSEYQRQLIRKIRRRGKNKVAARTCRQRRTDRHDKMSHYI

[8] = target: T6, Mannose-6-phosphate isomerase (Homo sapiens, UniProt P34949); experiment: inhibitors of human PMI, primary screen, biochemical, fluorescence intensity, coupled assay (AID 1209)
T6 sequence (P34949 whole entry): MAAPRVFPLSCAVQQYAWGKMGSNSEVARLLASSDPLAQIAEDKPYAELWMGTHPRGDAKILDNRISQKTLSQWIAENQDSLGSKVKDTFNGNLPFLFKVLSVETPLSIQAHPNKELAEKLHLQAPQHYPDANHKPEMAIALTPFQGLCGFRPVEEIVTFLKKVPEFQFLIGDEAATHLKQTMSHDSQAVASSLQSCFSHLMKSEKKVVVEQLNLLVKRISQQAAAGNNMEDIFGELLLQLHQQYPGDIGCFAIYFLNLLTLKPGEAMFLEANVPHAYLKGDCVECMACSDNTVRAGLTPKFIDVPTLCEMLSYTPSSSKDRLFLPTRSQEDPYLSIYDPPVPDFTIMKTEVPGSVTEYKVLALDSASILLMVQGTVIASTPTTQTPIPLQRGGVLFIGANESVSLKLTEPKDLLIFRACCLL

[9] = target: T6, Mannose-6-phosphate isomerase; experiment: human PMI inhibitors, high substrate, primary screen, biochemical, fluorescence intensity, high mannose 6-phosphate (AID 1220)
[10] = HEp-2 cell cytotoxicity, dose response, cytotoxicity control for RSV inhibitor project, HTS (AID 2410); format: functional; conditions: human respiratory syncytial virus
[11] = control 3'UTR Renilla luciferase suppression, dose response, counter-screen for Shn3 inhibitor project, cell-based, Clone20-Shn3RL, cherry-picked (AID 624133); format: functional
[12] = HepG2 cell cytotoxicity, dose response, cytotoxicity control for Shn3 inhibitor project, CellTiter-Glo, cherry-picked (AID 624134); format: functional, cell-based
[13] = Shn3 3'UTR reporter inhibitors, dose response, cell-based, Clone20 osteoblasts, firefly luciferase, cherry-picked (AID 624132); format: functional;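 note: firefly luciferase luminescence from reporter carrying the Shn3 3'UTR in osteoblasts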
[14] = A Cell Based Secondary Assay To Explore Cytotoxicity of Compounds that Sensitize Mycobacterium Tuberculosis to Beta-Lactam Antibiotics.; format: functional
H4 = experiment: Luminescence Cell-Based Dose Response HTS to Identify Activators of 5'UTR Stem-Loop Driven Prion Protein mRNA Translation in H4 Neuroglioblastoma Cells. [Related pubchem assays: 1829 (Project Summary), 1814 (Primary HTS)]; format: functional; conditions: Homo sapiens
[15] = Luminescence Cell-Based Dose Confirmation HTS to Identify Activators of 5'UTR Stem-Loop Driven Alpha-Synuclein mRNA Translation in H4 Neuroglioblastoma Cells. [Related pubchem assays: 1829 (Project Summary), 1814 (Primary HTS)]; format: functional
[16] = Luminescence Cell-Based Dose Response HTS to Identify Activators of Luciferase Translation or Activity in H4 […] Cells. [Related pubchem assays: 1829 (Project Summary), 1814 (Primary HTS)]; format: functional

Chain of Sphingosine 1-phosphate receptor 2 (O95136 whole entry): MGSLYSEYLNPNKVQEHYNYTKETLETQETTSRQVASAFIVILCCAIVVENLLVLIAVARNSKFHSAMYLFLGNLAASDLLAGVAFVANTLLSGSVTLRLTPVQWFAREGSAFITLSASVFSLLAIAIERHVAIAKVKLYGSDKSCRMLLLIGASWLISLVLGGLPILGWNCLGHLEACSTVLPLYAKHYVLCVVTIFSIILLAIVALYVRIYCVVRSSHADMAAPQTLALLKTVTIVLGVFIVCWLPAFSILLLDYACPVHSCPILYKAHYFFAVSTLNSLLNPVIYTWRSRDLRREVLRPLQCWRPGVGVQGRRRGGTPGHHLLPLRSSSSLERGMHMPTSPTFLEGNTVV
Chain of Kallikrein-7 (P49862 whole entry): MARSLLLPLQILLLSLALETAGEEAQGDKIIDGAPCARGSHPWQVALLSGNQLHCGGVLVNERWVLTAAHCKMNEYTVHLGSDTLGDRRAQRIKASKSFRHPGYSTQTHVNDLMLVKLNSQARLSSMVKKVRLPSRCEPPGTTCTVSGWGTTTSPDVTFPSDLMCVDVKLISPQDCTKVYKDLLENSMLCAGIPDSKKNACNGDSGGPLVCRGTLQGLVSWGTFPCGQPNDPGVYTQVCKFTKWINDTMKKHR
Chain of Estrogen receptor beta (Q92731 whole entry): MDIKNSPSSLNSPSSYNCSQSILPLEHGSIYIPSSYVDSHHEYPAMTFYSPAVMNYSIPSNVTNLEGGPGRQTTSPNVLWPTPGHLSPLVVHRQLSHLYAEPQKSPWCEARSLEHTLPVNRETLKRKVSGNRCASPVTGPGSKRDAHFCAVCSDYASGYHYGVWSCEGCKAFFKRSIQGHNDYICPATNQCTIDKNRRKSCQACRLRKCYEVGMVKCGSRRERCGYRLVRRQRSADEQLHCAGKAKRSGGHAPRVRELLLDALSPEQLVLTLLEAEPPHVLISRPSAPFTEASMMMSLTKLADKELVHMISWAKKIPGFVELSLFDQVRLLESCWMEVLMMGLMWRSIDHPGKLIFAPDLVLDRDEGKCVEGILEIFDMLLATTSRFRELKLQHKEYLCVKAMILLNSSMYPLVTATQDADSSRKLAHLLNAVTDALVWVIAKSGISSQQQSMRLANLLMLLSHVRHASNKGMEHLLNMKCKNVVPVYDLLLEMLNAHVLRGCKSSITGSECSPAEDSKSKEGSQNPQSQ

Which IC50 (Estrogen receptor beta) does the source give for `O=C(O)c1cc2sccc2s1` here?
The IC50 was > 50 µM (not active).

With `CC(C)Oc1ccc(C(=O)Nc2ccc(Cl)c(S(=O)(=O)Nc3ccc(Cl)cc3)c2)cc1` as the molecule, how does the CC50 (Vero) read?
The CC50 was 28.1 µM (active).

With `CCCCC(=O)OCC(=O)Nc1ccc(SC(F)F)cc1` as the molecule, how does the IC50 [1] read?
Its IC50 is > 100 µM (active).

Which EC50 [2] does the source give for `Cc1cc(C(=O)COc2ccc(C(N)=O)cc2)c(C)n1Cc1ccccc1` here?
Its EC50 is > 30 µM (not active).

With `COc1ccc(OC)c(CCNC(=O)Cn2nc(C)c3c(C)n(-c4ccc(C)cc4)nc3c2=O)c1` as the molecule, how does the IC50 (Galanin receptor type 3) read?
The IC50 was 2.76 µM (active).

And the EC50 (cells [3])?
Its EC50 is > 29.9 µM (inactive).

What about the IC50 [4] of the same molecule?
Its IC50 is 2.61 µM (active).

And the IC50 [5]?
Its IC50 is > 80 µM (inactive).

For `CC[C@@H]1C(c2ccc(F)cc2)=NN(c2ccccc2)[C@H]1C(=O)N1CCOC1=O`, which EC50 (Kallikrein-7) is on record?
The EC50 was 7.45 µM (active).

Which IC50 [1] does the source give for `Cc1ccc(OCCC(=O)Nc2ccc(C)c(F)c2)cc1` here?
Its IC50 is > 100 µM (active).

For `CC(=O)c1ccc(OCC(=O)c2cc(C)n(Cc3ccccc3)c2C)cc1`, which EC50 [2] is on record?
Its EC50 is > 30 µM (not active).

Which results are given for `CCc1ccccc1NC(=O)CNC(=O)CCc1nc2sc3c(c2c(=O)[nH]1)CCCC3`?
AC50 (Caspase-6): 24.8 µM (active); IC50 [6]: 5.82 µM (active)

Which EC50 [2] does the source give for `COc1cccc(C2(C)NC(=O)N(CC(=O)c3cc(C)n(Cc4ccccc4)c3C)C2=O)c1` (stereo not drawn) here?
Its EC50 is > 30 µM (not active).

For `Cc1ccc(S(=O)(=O)N2CCN(C)CC2)cc1-c1nnc2c3ccccc3c(C)nn12`, which IC50 (cells [7]) is on record?
Its IC50 is 23.1 µM (active).

For `O=C(O)CCNc1cc2ccccc2cc1C(=O)O`, which IC50 (Protein skinhead-1) is on record?
Its IC50 is > 100 µM (inactive).

What about the IC50 [8] of the same molecule?
The IC50 was > 50 µM (not active).

And the IC50 [9]?
The IC50 was > 50 µM (not active).

For `CCOc1ccc(OCC)c(NC(=O)CN2CCN(c3cc(C)ccc3C)CC2)c1`, which IC50 [1] is on record?
The IC50 was > 100 µM (active).

For `Cc1cc(C)c2cc(C=O)c(Cl)nc2c1`, which IC50 [8] is on record?
Its IC50 is 14.2 µM (active).

And the IC50 [9]?
Its IC50 is 17.1 µM (active).

For `CCN(c1ccccc1)S(=O)(=O)c1ccc(Cl)c(NC(=O)CSc2nc[nH]n2)c1`, which CC50 [10] is on record?
Its CC50 is 46.3 µM (active).

What about the IC50 (cells [7]) of the same molecule?
Its IC50 is 16.9 µM (active).

For `CCC(C)C(NC(=O)CCCNC(=O)CCC(=O)OC1O[C@H]2OC3(C)CC[C@H]4[C@H](C)CCC(C1C)C24OO3)C(=O)O` (stereo partly drawn), which AC50 [11] is on record?
The AC50 was 0.683 µM (active).

What about the AC50 [12] of the same molecule?
Its AC50 is > 70 µM (inactive).

And the AC50 [13]?
Its AC50 is 1.02 µM (active).

And the IC50 [4]?
The IC50 was > 85.4 µM (inactive).

With `Cc1nc(N=C(N)NC(=O)c2ccccc2)nc2ccccc12` as the molecule, how does the CC50 [14] read?
The CC50 was > 40 µM (active).

What about the EC50 (H4) of the same molecule?
Its EC50 is 63.4 µM (active).

And the EC50 [15]?
Its EC50 is 8.34 µM (active).

And the EC50 [16]?
Its EC50 is 28.4 µM (active).

For `c1ccc(-c2cc(N3CCOCC3)nc3ccccc23)cc1`, which CC50 [14] is on record?
The CC50 was > 40 µM (active).

Which IC50 [6] does the source give for `CS(=O)(=O)c1ccc(-c2sc3cc4c(cc3c2C(=O)NN2CCOCC2)OCO4)cc1` here?
The IC50 was 14.6 µM (active).

What about the EC50 (Kallikrein-7) of the same molecule?
The EC50 was > 23.2 µM (inactive).

Which EC50 (Kallikrein-7) does the source give for `COc1ccc(-c2ccc3c(n2)CCCN3Cc2ccccc2C(F)(F)F)cc1` here?
Its EC50 is 17.2 µM (inactive).

Which results are given for `C(=N\Nc1ncnc2sc3c(c12)CCC3)/c1ccncc1`?
CC50 [10]: 38.7 µM (active); CC50 (Vero): > 100 µM (active)

With `COc1cc(C)c2occ(/C(C)=N\O)c2c1` as the molecule, how does the IC50 (cells [7]) read?
Its IC50 is 18.4 µM (active).
